Reference: patent US7230020B2, “11β-hydroxysteroid dehydrogenase inhibitors” (priority 2003, dated 2007)
Like-named read-outs stand apart in the source and are kept apart here.

Assays:
Human 11β HSD1 = target: T1, Human 11β HSD1 (Homo sapiens, UniProt P28845); assay: biochemical; format: biochemical; details: for inhibition at 10 µM: read-out: % inhibition of Human 11β HSD1 @10 μM typical sd ± 5% N = 2
T1 construct: human hepatic microsomes were obtained from XenoTech, product H0610/Lot 0210078; tissue XenoTech H0610/Lot 0210078; host or cells: human liver (hepatic microsomes)
T1 sequence (P28845 whole entry): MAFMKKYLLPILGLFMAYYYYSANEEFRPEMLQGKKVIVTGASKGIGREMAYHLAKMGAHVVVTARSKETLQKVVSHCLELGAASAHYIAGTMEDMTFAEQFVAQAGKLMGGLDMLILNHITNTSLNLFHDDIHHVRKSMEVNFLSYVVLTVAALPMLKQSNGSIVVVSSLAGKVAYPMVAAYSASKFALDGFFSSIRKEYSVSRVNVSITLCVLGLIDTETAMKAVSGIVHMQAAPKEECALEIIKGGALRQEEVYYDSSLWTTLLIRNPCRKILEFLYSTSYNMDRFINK
Experimental: Standard Operating Procedure for the 11β-Hydroxysteroid Dehydrogenase Type 1 cortisol Radioimmunoassay (11β HSD1 Cortisol RIA).
30 mM Tris-HCL, pH 7.2 containing 1 mM EDTA.
50 mM Tris-HCL, pH 8, containing 0.1 M NaCl and 0.1% gelatin.
Prepare 10 mM stock solutions in 100% DMSO at 100 times the required assay concentration. Dilute into assay buffer 1 in 25. Also dilute neat DMSO 1 in 25 into assay buffer for controls.
Dilute this 1 in 50 into assay buffer.
Prepare NADPH as a 1.8 mg/ml solution in assay buffer.
Mix these 3solutions 1:1:1 to make a solution of sufficient volume for 25 μl additions to each sample. Add 0.5 μCi tritiated cortisone per 25 μl and mix the solution well.
Dilute stock 20 mg/ml solution 1 in 100 with assay buffer.
Dilute stock antibody solution to 17 μg/ml in antibody binding buffer.
Make a 20 mg/ml solution in antibody binding buffer and chill on ice.
To a u-bottom polypropylene 96 well plate add: • 25 μl compound dilution or diluted DMSO to controls, NSB's and blanks • 10 μl 1 mM GA in DMSO (enzyme stop solution) to blanks • 25 μl substrate mixture to all samples • 50 μl diluted microsomes to all samples • Incubate plate for 30 min at 37° C. shaking p0 Add 10 μl enzyme stop solution to all wells except the blanks • Add 100 μl antibody solution to all wells except the NSB's, add antibody binding buffer to these wells • Incubate at 37° C. for 1 h • Chill plate on ice for 15 min • Add 50 μl/well charcoal solution and mix with an 8-channel pipette (4-5 aspirations) • Chill the plate on ice • Centrifuge at 4° C., 2000×g for 15 min • Transfer 100 μl supernatant into an Optiplate, also add 25 μl substrate mixture to 2 empty wells to indicate counting efficiency • Add 200 μl Microscint-40 to all wells and count on a Topcount Radioimmunoassay
The 11β HSD1 enzyme assay was carried out following the standard operating procedure described above in u-bottom polypropylene 96 well plates or 1.5 ml Eppendorf tubes as indicated for each experiment. Subsequent to stopping the enzyme reaction, 100 μl antibody prepared in buffer 3 unless otherwise indicated was added to test samples and 100 μl buffer 3 was added to the NSB samples. The samples were incubated for 1 hour at 37° C. and the chilled on ice for 15 mins. Dextran coated charcoal (50 μl/sample) prepared to the indicated concentration in buffer 3 was added and the samples were mixed (vortex for tubes and aspiration 5 times with an 8-channel pipette for 96 well plates) and chilled for a further 10 min. The samples were centrifuged at 2000×g for 15 min at 4° C. to pellet the charcoal. Aliquots of the supernatant (100 μl) were transferred to an Optiplate and counted on the Topcount in 150-200 μl Microscint 40. In some experiments, aliquots of supernatant were transferred to scintillation vials and counted on the Tricarb LSC in 5 ml Ultima Gold scintillant.

[1] = compound 10 μM, human hepatic microsomes, cortisone 175 nM, typical sd ± 5%, N = 2

Row | melting point [°C] | Compound | inhibition at 10 µM (Human 11β HSD1) [%] | also measured
1 | 272 to 274 | CC1Nc2cc(NC(=O)c3ccc(-c4ccccc4)cc3)ccc2N1C (stereo not shown) |  | 
2 | 214 to 218 | CCCc1ccc(C(=O)Nc2ccc3c(c2)nc(C)n3C)cc1 |  | 
3 | 245 to 247 | Cc1nc2cc(N(C)C(=O)c3ccc(Cl)cc3Cl)ccc2n1C |  | 
4 | 184 | CCCc1ccc(C(=O)Nc2ccc3sc(C)nc3c2Cl)cc1 |  | 
5 | 173 to 174 | COc1ccc(CC(=O)Nc2ccc3sc(C)nc3c2Cl)cc1 |  | 
6 | 182 | COc1ccc(C(=O)Nc2ccc3sc(C)nc3c2Cl)cc1 |  | 
7 | 109 to 111 | COc1ccc(C(=O)NCCc2cccs2)cc1 |  | 
8 | 97 to 99 | CCCc1ccc(C(=O)NCCc2cccs2)cc1 |  | 
9 | 99 to 100 | O=C(NCCc1cccs1)c1cc(Cl)ccc1Cl |  | 
10 | 257 to 258 | Cc1nc2c(Cl)c(NC(=O)Cc3ccc(Cl)cc3Cl)ccc2s1 |  | 
11 | 218 to 221 | O=C(Nc1ccc2c(c1)CCC2=O)c1cc(Cl)ccc1Cl |  | 
12 | 237 to 238 | COc1ccc(C(=O)Nc2ccc3c(c2)CCC3=O)cc1 |  | 
13 | 212 to 213 | O=C(Nc1ccc(C(=O)c2ccccc2)cc1)c1ccc(-c2ccccc2)cc1 |  | 
14 | 139 to 141 | COc1cccc(C(=O)Nc2ccc(C(=O)c3ccccc3)cc2)c1 |  | 
15 | 199 to 200 | CC(=O)c1ccc(NC(=O)c2cc(Cl)cc(Cl)c2)cc1 |  | 
16 | 174 to 176 | CCCc1ccc(C(=O)Nc2ccc(C(C)=O)cc2)cc1 |  | 
17 | 222 to 223 | COc1ccc(C(=O)Nc2ccc(C(C)=O)cc2)cc1 |  | 
18 | 152 to 154 | COc1cccc(C(=O)Nc2ccc(C(C)=O)cc2)c1 |  | 
19 | 226 to 228 | O=C(Nc1ccc2c(c1)CCCC2=O)c1cc(Cl)cc(Cl)c1 |  | 
20 | 163 to 166 | COc1ccc(C(=O)Nc2ccc3c(c2)CCCC3=O)cc1 |  | 
21 | 142 to 143 | COc1cccc(C(=O)Nc2ccc3c(c2)CCCC3=O)c1 |  | 
22 |  | CC1(C)[C@@H](OC(=O)CCC(=O)O)CC[C@]2(C)[C@H]3C(=O)C=C4[C@@H]5C[C@@](C)(C(=O)O)CC[C@]5(C)CC[C@@]4(C)[C@]3(C)CC[C@@H]12 [carbenoxolone, Carbenoxolone, reference compound] |  | times more active than is suggested by Barf et al. [14] (Human 11β HSD1; 350 nM cortisone, 0.3% DMSO, RIA buffer (Buffer 3) (FIG. 23)): about 5 times

Row | melting point [°C] | Compound | inhibition at 10 µM (Human 11β HSD1) [%] | also measured
23 |  | CCCc1ccc(C(=O)Nc2ccc3sc(C)nc3c2)cc1 [compound 471] | 53.7 | 
24 |  | CCCc1ccc(C(=O)N(C)c2ccc3sc(C)nc3c2)cc1 [compound 472] | 71.4 | 
25 |  | Cc1nc2cc(NC(=O)c3cc(Cl)cc(Cl)c3)ccc2s1 [compound 520] | 43.5 | 
26 |  | COc1ccc(S(=O)(=O)Nc2ccc(S(=O)(=O)Nc3cc(C)on3)cc2)cc1 [compound 555] | 53 | 
27 |  | COc1cccc(NC(=O)Nc2ccc(S(=O)(=O)Nc3cc(C)on3)cc2)c1 [compound 556] | 46.2 | 
28 |  | CC(=O)Nc1ccc(S(=O)(=O)NNC(=O)CSc2ncnc3c(C)csc23)cc1 [compound 557] | 51.3 | 
29 |  | COc1ccc(S(=O)(=O)Nc2ccc(S(=O)(=O)Nc3nc(C)cc(C)n3)cc2)cc1OC [compound 558] | 31.2 | 
30 |  | CCCc1ccc(S(=O)(=O)N(CC2CCNCC2)S(=O)(=O)c2ccc(CCC)cc2)cc1 [compound 576] |  | inhibition at 10 µM (Human 11β HSD1; [1]): 47.7%
31 |  | CCCc1ccc(S(=O)(=O)Nc2ccc(OC)nc2)cc1 [compound 577] | 54.6 | 
32 |  | CC(=O)Nc1ccc(S(=O)(=O)Nc2cc(C)on2)cc1 [compound 606] |  | inhibition at 10 µM (Human 11β HSD1; [1]): 22.1%
33 |  | Cc1cc(NS(=O)(=O)c2ccc(NS(=O)(=O)c3ccc(Cl)cc3Cl)cc2)no1 [compound 644] | 37.1 | 
34 |  | CC(=O)Nc1ccc(S(=O)(=O)Nc2cc(C)on2)cc1Cl [compound 645] | 42 | 
35 |  | COc1ccc(S(=O)(=O)Nc2ccc(S(=O)(=O)NCCO)cc2)cc1 [compound 646] | 48.5 | 
36 |  | COc1ccc(S(=O)(=O)Nc2ccc(S(=O)(=O)NCCOS(=O)(=O)c3ccc(OC)cc3)cc2)cc1 [compound 647] | 34.5 | 
37 |  | COc1ccc(S(=O)(=O)Nc2ccc(S(=O)(=O)NCCO)cc2)cc1OC [compound 649] | 26.3 | 
38 |  | COc1cc(C)c(S(=O)(=O)Nc2ccc(S(=O)(=O)NCCOS(=O)(=O)c3c(C)cc(OC)c(C)c3C)cc2)c(C)c1C [compound 652] | 31.8 | 
39 |  | O=S(=O)(NCCO)c1ccc(NS(=O)(=O)c2ccc(Cl)cc2Cl)cc1 [compound 653] | 36.4 | 
40 |  | Cc1cc(NS(=O)(=O)c2ccc(N)c(Cl)c2)no1 [compound 654] | 32.1 | 
41 |  | CCCc1ccc(S(=O)(=O)NCc2ccccn2)cc1 [compound 702] | 37.6 | 
42 |  | Cc1cc(NS(=O)(=O)c2cc(Cl)ccc2Cl)no1 [compound 823] | 42.9 | 
43 |  | Cc1cc(NS(=O)(=O)c2cccc(Cl)c2C)no1 [compound 825] | 23.2 | 
44 |  | Cc1noc2ccc(NS(=O)(=O)c3cc(Cl)ccc3Cl)cc12 [compound 876] | 23.6 | 

Row | melting point [°C] | Compound | inhibition at 10 µM (Human 11β HSD1) [%] | also measured
45 |  | CCCc1ccc(S(=O)(=O)Nc2ccc3oncc3c2)cc1 [compound 919] | 25.4 | 
46 |  | O=S(=O)(Nc1ccc2oncc2c1)c1cc(Cl)ccc1Cl [compound 920] | 27.5 | 
47 |  | CC(=O)Nc1nsc2ccc(NS(=O)(=O)c3cccc(Cl)c3C)cc12 [compound 929] | 31 | 
48 |  | Cc1ccc2cc(NS(=O)(=O)c3cccc(Cl)c3C)ccc2n1 [compound 935] | 20.7 | 
49 |  | CCCc1ccc(S(=O)(=O)Nc2ccc3nc(C)ccc3c2)cc1 [compound 936] | 42.3 | 
50 |  | Cc1ccc2cc(NS(=O)(=O)c3cc(Cl)ccc3Cl)ccc2n1 [compound 937] | 36.6 | 
51 |  | Cc1cnc2cc(NS(=O)(=O)c3cccc(Cl)c3C)ccc2n1 [compound 955] | 60.8 | 
52 |  | CCCc1ccc(S(=O)(=O)Nc2ccc3nc(C)cnc3c2)cc1 [compound 956] | 64.8 | 
53 |  | Cc1c(Cl)cccc1S(=O)(=O)Nc1ccc2nccnc2c1 [compound 957] | 55.5 | 
54 |  | CCCc1ccc(S(=O)(=O)Nc2ccc3nccnc3c2)cc1 [compound 958] | 58.1 | 
55 |  | COC(=O)c1cc2cc(NS(=O)(=O)c3cccc(Cl)c3C)ccc2s1 [compound 971] | 49.6 | 
56 |  | Cc1c(Cl)cccc1S(=O)(=O)Nc1ccc2occ(C)c2c1 [compound 972] | 59.2 | 
57 |  | COC(=O)c1cc2cc(NS(=O)(=O)c3cccc(Cl)c3C)ccc2o1 [compound 973] | 33.1 | 
58 |  | Cc1c(Cl)cccc1S(=O)(=O)Nc1ccc2c(c1)C(=O)N(C)C2=O [compound 979] | 54.1 | 
59 |  | Cc1c(Cl)cccc1S(=O)(=O)Nc1ccc2c(C)cc(=O)oc2c1 [compound 980] | 61.2 | 
60 |  | Cc1c(Cl)cccc1S(=O)(=O)Nc1ccc2[nH]ncc2c1 [compound 983] | 41.9 | 
61 |  | Cc1c(Cl)cccc1S(=O)(=O)Nc1ccc2c(cnn2C)c1 [compound 988] | 56 | 
62 |  | Cc1c(Cl)cccc1S(=O)(=O)Nc1ccc2c(c1)OCCO2 [compound 990] | 73.3 | 
63 |  | Cc1c(Cl)cccc1S(=O)(=O)Nc1ccc2scc(C)c2c1 [compound 1015] | 64.6 | 
64 |  | Cc1nc2cc(CSc3cc(Cl)ccc3Cl)ccc2s1 [compound 1031] | 45.6 | 
65 |  | Cc1c(Cl)cccc1S(=O)(=O)Nc1ccc2c(c1)-c1ccccc1C2=O [compound 1033] | 62.6 | 
66 |  | Cc1cc2cc(NS(=O)(=O)c3cccc(Cl)c3C)ccc2o1 [compound 1038] | 28.7 | 

Row | Compound | melting point [°C] | inhibition at 10 µM (Human 11β HSD1) [%] | also measured
67 | CCCc1ccc(C(=O)Nc2ccc3sc(C)nc3c2)cc1 | 148 to 149 |  | 
68 | CCCc1ccc(S(=O)(=O)Nc2ccc(OC)nc2)cc1 | 93 to 94 |  | 
69 | Cc1cnc2cc(NS(=O)(=O)c3cccc(Cl)c3C)ccc2n1 | 163 to 164 |  | 
70 | COC(=O)c1cc2cc(NS(=O)(=O)c3cccc(Cl)c3C)ccc2o1 | 168 to 168.4 |  | 
